Results reported in patent publication US9238796B2, “Cell growth-promoting peptide and use thereof” (TOAGOSEI CO., LTD., priority 2010, dated 2016).
No end group written: not given here.

Tests used:
[1] = tested on: Rat bone marrow-derived stem cells (mesenchymal stem cells); test: Evaluation of cell growth-promoting activity, WST-8 colorimetric method (Example 2); type: cell-based; conditions: WST-8 absorbance at 450 nm, peptide approximately 2 μM, bFGF 10 ng/mL
Description: (§1) Experimental sections were set up that used the cell growth-promoting peptides obtained in Example 1 (samples 1 to 21) as a cell growth promoter and that used a commercially available bFGF as a cell growth promoter as a comparative example. For the control, a peptide-free section (the bFGF was also not added) was set up.
(§2) The details of the evaluation testing are provided below. Each synthesized sample peptide was dissolved in PBS (phosphate-buffered physiological saline) to prepare a stock solution with a peptide concentration of 1 mM.
(§3) Rat bone marrow-derived stem cells (mesenchymal stem cells) were used as the test cells. Specifically, the test stem cells were cultured by passage on Dulbecco's MEM medium (DMEM medium: Gibco product) containing 10% fetal bovine serum (FBS: Gibco product), 2 mM of L-glutamine, 50 unit/mL of penicillin, and 50 μg/mL of streptomycin. From the second passage to the fourth passage (passages 2 to 4) were used in this evaluation testing.
(§4) Thus, the test stem cells were preliminarily recovered by treatment with a 0.05% trypsin-0.53 mM EDTA solution; a test stem cell solution, prepared with the DMEM medium containing 10 ng/mL of bFGF to provide 1×10^4 cells/mL, was seeded to each well of a 96-well plate to provide a cell count of 1×10^3 per well; and pre-cultivation was carried out overnight. The amount of medium was brought to 100 μL per well for this.
(§5) The medium in each well was then exchanged for fresh medium to which a stock solution of a peptide selected from sample 1 to 21 had been added, so as to give a concentration of the peptide in each well of approximately 2 μM. For comparison, in some wells the medium in the well was exchanged for fresh medium to which a commercially available bFGF (product of PeproTech) had been added to give a concentration of 10 ng/mL (the bFGF experimental section in Table 3).
(§6) After the addition of the sample peptide or bFGF as indicated above, the 96-well plate was placed in a CO2 incubator and cultivation at quiescence was carried out at 37° C. under 5% CO2. Medium exchange was performed every other day. The exchange medium was the same as that used at the start of cultivation (i.e., the same sample peptide or bFGF was also added to the exchange medium as in the sample peptide addition section or bFGF addition section).
During this cultivation test, a “water-soluble tetrazolium salt (WST-8)” was added as a chromogenic reagent to some wells at the start of cultivation (day 0), at two days after the start of cultivation (day 2), and at four days after the start of cultivation (day 4). After incubation for 2 hours after the addition, the cell culture fluid to which the chromogenic reagent had been added was recovered. The extent of cell growth was evaluated by a colorimetric method in which, based on reduction of the tetrazolium salt, the absorbance (OD450) at a wavelength of 450 nm was measured.

[2] = tested on: Rat bone marrow-derived stem cells (mesenchymal stem cells); test: Evaluation of cell growth-promoting activity, WST-8 colorimetric method (Example 5); type: cell-based; conditions: WST-8 absorbance at 450 nm, peptide approximately 2 μM, bFGF 10 ng/mL; for OD450 at the start of cultivation: day 0; for OD450 after 4 days: day 4
Description: as §1, with “Example 4” for “Example 1”, “(samples 22” for “(samples 1”, “to 42)” for “to 21)”
as §2, §3, §4
as §5, with “sample 22” for “sample 1”, “to 42” for “to 21”, “Table 6).” for “Table 3).”
as §6
During this cultivation test, a “water-soluble tetrazolium salt (WST-8)” was added as a chromogenic reagent to some wells at the start of cultivation (day 0) and at four days after the start of cultivation (day 4). After incubation for 2 hours after the addition, the cell culture fluid to which the chromogenic reagent had been added was recovered. The extent of cell growth was evaluated by a colorimetric method in which, based on reduction of the tetrazolium salt, the absorbance (OD450) at a wavelength of 450 nm was measured.

Substance	OD450 at the start of cultivation ([1]; day 0)	OD450 after 2 days ([1]; day 2)	OD450 after 4 days ([1]; day 4)	OD450 at the start of cultivation [2]	OD450 after 4 days [2]
basic fibroblast growth factor [bFGF, reference compound]	0.058	0.196	0.484	0.051	0.499
MLPGLALLLLAAWTAGKKRTLRKNDRKKR (MLPGLALLLLAAWTAGKKRTLRKNDRKKR-NH2) [compound 34]				0.051	0.243
MLPGLALLGKKRTLRKNDRKKR (MLPGLALLGKKRTLRKNDRKKR-NH2) [compound 41]				0.051	0.311
MLPGLALLLLAAWTARAGKKRTLRKNDRKKR (MLPGLALLLLAAWTARAGKKRTLRKNDRKKR-NH2) [sample 22]				0.051	0.241
WTARAGKKRTLRKNDRKKR (WTARAGKKRTLRKNDRKKR-NH2) [compound 33]				0.051	0.407
LLAAWTARAGKKRTLRKNDRKKR (LLAAWTARAGKKRTLRKNDRKKR-NH2) [compound 29]				0.051	0.434
